Measurements taken from patent US20140303164A1, “THERAPEUTIC COMPOUNDS” (Gilead Sciences, Inc., priority 2013, published 2014).

Columns and labels:
HIV-IIIb = assay: Test A: Antiviral Assay in MT4 Cells; format: cell-based, HIV-1; conditions: Human immunodeficiency virus 1, IIIB, MT4, 120 h; for inhibition at 0.2 µM: read-out: % inhibition at 0.2 μM; for inhibition at 2 µM: read-out: % inhibition at 2 μM
Protocol: Test A: Antiviral Assay in MT4 Cells
MT-4 cells were next mixed with HIV-IIIb at an m.o.i of 0.003 for 1 hour, after which time 35 μL of virus/cell mixture (2000 cells) was immediately added to each well containing 40 μL of diluted compound. The plates were then incubated at 37° C. for 5 days. […] Cell lysis was carried out by incubating at room temperature for 10 min and then chemiluminescence was read.

[1] = Test B: Cytotoxicity Assay; format: cell-based; conditions: human, uninfected MT-4 cells, same protocol as Test A
In short: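 Uninfected MT-4 cells (2000 per well) incubated with diluted compound at 37° C. for 5 days, following the antiviral protocol without HIV-IIIb.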

SMILES | inhibition at 0.2 µM (HIV-IIIb) [%] | inhibition at 2 µM (HIV-IIIb) [%] | CC50 at 5 days [1] [µM]
Cn1nc(NC(=O)C(F)(F)F)c2c(Cl)ccc(-c3ccc(C#CC(C)(C)O)nc3[C@H](Cc3cc(F)cc(F)c3)NC(=O)Cn3nc(C(F)F)c4c3C(F)(F)[C@@H]3C[C@H]43)c21 [Compound 98, N-(4-chloro-7-(2-((S)-1-(2-((3bS,4aR)-3-(difluoromethyl)-5,5-difluoro-3b,4,4a,5-tetrahydro-1H-cyclopropa[3,4]cyclopenta[1,2-c]pyrazol-1-yl)acetamido)-2-(3,5-difluorophenyl)ethyl)-6-(3-hydroxy-3-methylbut-1-yn-1-yl)pyridin-3-yl)-1-methyl-1H-indazol-3-yl)-2,2,2-trifluoroacetamide] | 100 | 100 | 8.41
Cn1nc(NS(C)(=O)=O)c2c(Cl)ccc(-c3ccc(C#CC(C)(C)O)nc3[C@H](Cc3cc(F)cc(F)c3)NC(=O)Cn3nc(C(F)(F)F)c4c3COCC4)c21 [Compound 190, (S)—N-(1-(3-(4 chloro-1-methyl-3-(methylsulfonamido)-1H-indazol-7-yl)-6-(3-hydroxy-3-methylbut-1-yn-1-yl)pyridin-2-yl)-2-(3,5-difluorophenyl)ethyl)-2-(3-(trifluoromethyl)-4,5-dihydropyrano[3,4-c]pyrazol-1(7H)-yl)acetamide] | 98 | 98 | 13.9
Cn1nc(NS(C)(=O)=O)c2c(Cl)ccc(-c3ccc(C#CC(C)(O)CO)nc3[C@H](Cc3cc(F)cc(F)c3)NC(=O)Cn3nc(C(F)(F)F)c4c3C(F)(F)[C@@H]3C[C@H]43)c21 (stereo partly drawn) [Compound 151, N-((1S)-1-(3-(4-chloro-1-methyl-3-(methylsulfonamido)-1H-indazol-7-yl)-6-(3,4-dihydroxy-3-methylbut-1-yn-1-yl)pyridin-2-yl)-2-(3,5-difluorophenyl)ethyl)-2-((3bS,4aR)-5,5-difluoro-3-(trifluoromethyl)-3b,4,4a,5-tetrahydro-1H-cyclopropa[3,4]cyclopenta[1,2-c]pyrazol-1-yl)acetamide] | 92 | 92 | 25.3
Cn1nc(NS(C)(=O)=O)c2cccc(-c3ccc(C#CC(C)(C)CO)nc3[C@H](Cc3cc(F)cc(F)c3)NC(=O)Cn3nc(C(F)(F)F)c4c3C(F)(F)[C@@H]3C[C@H]43)c21 [Compound 63, 2-((3bS,4aR)-5,5-difluoro-3-(trifluoromethyl)-3b,4,4a,5-tetrahydro-1H-cyclopropa[3,4]cyclopenta[1,2-c]pyrazol-1-yl)-N—((S)-2-(3,5-difluorophenyl)-1-(6-(4-hydroxy-3,3-dimethylbut-1-yn-1-yl)-3-(1-methyl-3-(methylsulfonamido)-1H-indazol-7-yl)pyridin-2-yl)ethyl)acetamide] | 91 | 91 | 8.89
Cn1nc(NC(=O)C(F)F)c2c(Cl)ccc(-c3ccc(C#CC(C)(C)O)nc3[C@H](Cc3cc(F)cc(F)c3)NC(=O)Cn3nc(C(F)F)c4c3C(F)(F)[C@@H]3C[C@H]43)c21 [Compound 97, N-(4-chloro-7-(2-((S)-1-(2-((3b-S,4aR)-3-(difluoromethyl)-5,5-difluoro-3b,4,4a,5-tetrahydro-1H-cyclopropa[3,4]cyclopenta[1,2-c]pyrazol-1-yl)acetamido)-2-(3,5-difluorophenyl)ethyl)-6-(3-hydroxy-3-methylbut-1-yn-1-yl)pyridin-3-yl)-1-methyl-1H-indazol-3-yl)-2,2-difluoroacetamide] | 100 | 100 | 7.6
COc1ccc2[nH]cc(CC(=O)N[C@@H](Cc3cc(F)cc(F)c3)c3nc(C#CC(C)(C)O)ccc3-c3ccc(Cl)c4c(NS(C)(=O)=O)nn(C)c34)c2n1 [Compound 194, (S)—N-(1-(3-(4 chloro-1-methyl-3-(methylsulfonamido)-1H-indazol-7-yl)-6-(3-hydroxy-3-methylbut-1-yn-1-yl)pyridin-2-yl)-2-(3,5-difluorophenyl)ethyl)-2-(5-methoxy-1H-pyrrolo[3,2-b]pyridin-3-yl)acetamide] | 84 | 99 | 21.3
CC(C)C(C)(O)C#Cc1ccc(-c2cccc3c(NS(C)(=O)=O)nn(C)c23)c([C@H](Cc2cc(F)cc(F)c2)NC(=O)Cn2nc(C(F)(F)F)c3c2C(F)(F)[C@@H]2C[C@H]32)n1 (stereo partly drawn) [Compound 62, 2-((3bS,4aR)-5,5-difluoro-3-(trifluoromethyl)-3b,4,4a,5-tetrahydro-1H-cyclopropa[3,4]cyclopenta[1,2-c]pyrazol-1-yl)-N-((1S)-2-(3,5-difluorophenyl)-1-(6-(3-hydroxy-3,4-dimethylpent-1-yn-1-yl)-3-(1-methyl-3-(methylsulfonamido)-1H-indazol-7-yl)pyridin-2-yl)ethyl)acetamide] | 100 | 100 | 5.7
CNc1nn(C)c2c(-c3ccc(C#CC(C)(C)O)nc3[C@H](Cc3cc(F)cc(F)c3)NC(=O)Cn3nc(C(F)F)c4c3C(F)(F)[C@@H]3C[C@H]43)ccc(Cl)c12 [Compound 81, N—((S)-1-(3-(4-chloro-1-methyl-3-(methylamino)-1H-indazol-7-yl)-6-(3-hydroxy-3-methylbut-1-yn-1-yl)pyridin-2-yl)-2-(3,5-difluorophenyl)ethyl)-2-((3bS,4aR)-3-(difluoromethyl)-5,5-difluoro-3b,4,4a,5-tetrahydro-1H-cyclopropa[3,4]cyclopenta[1,2-c]pyrazol-1-yl)acetamide] | 100 | 100 | 12.5
Cn1nc(NS(C)(=O)=O)c2c(Cl)ccc(-c3ccc(C#CC(O)(CF)CF)nc3[C@H](Cc3cc(F)cc(F)c3)NC(=O)Cn3nc(C(F)F)c4c3C(F)(F)[C@@H]3C[C@H]43)c21 [Compound 170, N—((S)-1-(3-(4-chloro-1-methyl-3-(methylsulfonamido)-1H-indazol-7-yl)-6-(4-fluoro-3-(fluoromethyl)-3-hydroxybut-1-yn-1-yl)pyridin-2-yl)-2-(3,5-difluorophenyl)ethyl)-2-((3b-S,4aR)-3-(difluoromethyl)-5,5-difluoro-3b,4,4a,5-tetrahydro-1H-cyclopropa[3,4]cyclopenta[1,2-c]pyrazol-1-yl)acetamide] | 88 | 88 | 17
Cn1nc(NS(C)(=O)=O)c2cccc(-c3ccc(C#CC(C)(C)O)nc3[C@H](Cc3cc(F)cc(F)c3)NC(=O)Cn3nc(C(F)F)c4c3C(F)(F)[C@@H]3C[C@H]43)c21 [Compound 20, (S)—N-(1-(3-(1-methyl-3-(methylsulfonamido)-1H-indazol-7-yl)-6-(3-hydroxy-3-methylbut-1-ynyl)pyridin-2-yl)-2-(3,5-difluorophenyl)ethyl)-2-((3b-S,4aR)-5,5-difluoro-3-(difluoromethyl)-3b,4,4a,5-tetrahydro-1H-cyclopropa[3,4]cyclopenta[1,2-c]pyrazol-1-yl)acetamide] | 96 | 80 | 11.2
CCNc1nn(C)c2c(-c3ccc(C#CC(C)(C)O)nc3[C@H](Cc3cc(F)cc(F)c3)NC(=O)Cn3nc(C(F)F)c4c3C(F)(F)[C@@H]3C[C@H]43)ccc(Cl)c12 [Compound 91E, N—((S)-1-(3-(4-chloro-3-(ethylamino)-1-methyl-1H-indazol-7-yl)-6-(3-hydroxy-3-methylbut-1-yn-1-yl)pyridin-2-yl)-2-(3,5-difluorophenyl)ethyl)-2-((3b-S,4aR)-3-(difluoromethyl)-5,5-difluoro-3b,4,4a,5-tetrahydro-1H-cyclopropa[3,4]cyclopenta[1,2-c]pyrazol-1-yl)acetamide] | 100 | 100 | 9.38
CNS(=O)(=O)Nc1nn(C)c2c(-c3ccc(C#CC(C)(C)O)nc3[C@H](Cc3cc(F)cc(F)c3)NC(=O)Cn3nc(C(F)F)c4c3C(F)(F)[C@@H]3C[C@H]43)ccc(Cl)c12 [Compound 123, N—((S)-1-(3-(4-chloro-1-methyl-3-((N-methylsulfamoyl)amino)-1H-indazol-7-yl)-6-(3-hydroxy-3-methylbut-1-yn-1-yl)pyridin-2-yl)-2-(3,5-difluorophenyl)ethyl)-2-((3b-S,4aR)-3-(difluoromethyl)-5,5-difluoro-3b,4,4a,5-tetrahydro-1H-cyclopropa[3,4]cyclopenta[1,2-c]pyrazol-1-yl)acetamide] | 90 | 90 | 7.9
CCNS(=O)(=O)Nc1nn(C)c2c(-c3ccc(C#CC(C)(C)O)nc3[C@H](Cc3cc(F)cc(F)c3)NC(=O)Cn3nc(C(F)(F)F)c4c3C(F)(F)[C@@H]3C[C@H]43)cccc12 [Compound 53, 2-((3bS,4aR)-5,5-difluoro-3-(trifluoromethyl)-3b,4,4a,5-tetrahydro-1H-cyclopropa[3,4]cyclopenta[1,2-c]pyrazol-1-yl)-N—((S)-2-(3,5-difluorophenyl)-1-(3-(3-((N-ethylsulfamoyl)amino)-1-methyl-1H-indazol-7-yl)-6-(3-hydroxy-3-methylbut-1-yn-1-yl)pyridin-2-yl)ethyl)acetamide] | 92 | 92 | 8.03
Cn1nc(NS(C)(=O)=O)c2c(Cl)ccc(-c3ccc(C#CC(C)(C)O)nc3[C@H](Cc3cc(F)cc(F)c3)NC(=O)Cn3nc4c(c3Cl)CCCC4)c21 [Compound 125D, (S)—N-(1-(3-(4 chloro-1-methyl-3-(methylsulfonamido)-1H-indazol-7-yl)-6-(3-hydroxy-3-methylbut-1-yn-1-yl)pyridin-2-yl)-2-(3,5-difluorophenyl)ethyl)-2-(3-chloro-4,5,6,7-tetrahydro-2H-indazol-2-yl)acetamide] | 96 | 97 | 13.6
